From ChEMBL document CHEMBL1130873 (Bioorg Med Chem Lett, 1998)

Legend:
SK-OV-3 [1] = test: (§1) Aerobic cytotoxic activity was evaluated by the growth inhibition of SKOV (human ovarian cancer line) aerobic cells; assay type: functional
[2] = Aerobic cytotoxic activity was evaluated by the growth inhibition of AA8 (chinese hamster) aerobic cells; assay type: functional, cell-based; settings: Cricetulus griseus, CHO-AA8
[3] = Aerobic cytotoxic activity was evaluated by the growth inhibition of UV4 aerobic cells; assay type: functional, cell-based; settings: Cricetulus griseus
[4] = Concentration required to 10% of controls reduce cell survival under hypoxic conditions using the UV4 aerobic cells; assay type: functional, Cricetulus griseus
[5] = Concentration required to reduce cell survival tunder hypoxic conditions using the UV4 aerobic cells; assay type: functional, Cricetulus griseus
SK-OV-3 [6] = test: as §1; assay type: functional, cell-based

Row | Structure (SMILES) | CT10 (SK-OV-3 [1]) [µM] | IC50 [2] [µM] | IC50 [3] [µM] | CT10 [4] [µM] | CT10 [5] [µM] | IC50 (SK-OV-3 [6]) [µM]
1 | CN(C)CCNC(=O)c1cc(N(CCCl)CCCl)c([N+](=O)[O-])cc1[N+](=O)[O-] | 1300 | 220 | 3.1 | 400 | – | –
2 | NC(=O)c1cc(N(CCCl)CCCl)c([N+](=O)[O-])cc1[N+](=O)[O-] | – | 1450 | 870 | – | 95 | > 1000
